In PubChem BioAssay AID2060897 (Molecular Pharmacology Branch, DTP, NCI, 2025):

Test system: 966289-007-R4-J1-PDC complex spheroid viability
Test: Anticancer human tumor 966289-007-R4-J1-PDC patient-derived pancreatic adenocarcinoma cell line growth inhibition [RAS]
Conditions: for viability, T/C: stronger effect = lower value
In short: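 Agents were tested in combination matrices in half-log decrements from a top concentration at or near clinical Cmax (10 microM if undetermined). Targets were multi-cell spheroids of tumour lines plus HUVEC and MSC stromal cells.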

[1] = curve of first compound, second compound 0.0316 µM
[2] = curve of first compound, second compound 0.1 µM
[3] = curve of first compound, second compound 0.316 µM
[4] = curve of first compound, second compound 1 µM
[5] = second compound 0.0316 µM, first compound 0.0316 µM
[6] = second compound 0.0316 µM, first compound 0.1 µM
[7] = second compound 0.0316 µM, first compound 0.316 µM
[8] = second compound 0.0316 µM, first compound 1 µM
[9] = second compound 0.1 µM, first compound 0.0316 µM
[10] = second compound 0.1 µM, first compound 0.1 µM
[11] = second compound 0.1 µM, first compound 0.316 µM
[12] = second compound 0.1 µM, first compound 1 µM
[13] = second compound 0.316 µM, first compound 0.0316 µM
[14] = second compound 0.316 µM, first compound 0.1 µM
[15] = second compound 0.316 µM, first compound 0.316 µM
[16] = second compound 0.316 µM, first compound 1 µM
[17] = second compound 1 µM, first compound 0.0316 µM
[18] = second compound 1 µM, first compound 0.1 µM
[19] = second compound 1 µM, first compound 0.316 µM
[20] = second compound 1 µM, first compound 1 µM
[21] = curve of first compound, second compound 3.16 µM
[22] = curve of first compound, second compound 10 µM
[23] = second compound 0.0316 µM, first compound 3.16 µM
[24] = second compound 0.0316 µM, first compound 10 µM
[25] = second compound 0.1 µM, first compound 3.16 µM
[26] = second compound 0.1 µM, first compound 10 µM
[27] = second compound 0.316 µM, first compound 3.16 µM
[28] = second compound 0.316 µM, first compound 10 µM
[29] = second compound 1 µM, first compound 3.16 µM
[30] = second compound 1 µM, first compound 10 µM
[31] = second compound 3.16 µM, first compound 0.0316 µM
[32] = second compound 3.16 µM, first compound 0.1 µM
[33] = second compound 3.16 µM, first compound 0.316 µM
[34] = second compound 3.16 µM, first compound 1 µM
[35] = second compound 3.16 µM, first compound 3.16 µM
[36] = second compound 3.16 µM, first compound 10 µM
[37] = second compound 10 µM, first compound 0.0316 µM
[38] = second compound 10 µM, first compound 0.1 µM
[39] = second compound 10 µM, first compound 0.316 µM
[40] = second compound 10 µM, first compound 1 µM
[41] = second compound 10 µM, first compound 3.16 µM
[42] = second compound 10 µM, first compound 10 µM
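Also: spheroids exposed to agents for one week before readout.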
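For viability, T/C in this document: percent viability relative to DMSO vehicle control wells as 100%.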

O=C(c1ccc(F)c(F)c1Nc1ccc(I)cc1F)N1CC(O)([C@@H]2CCCCN2)C1 + C=CC(=O)N1CCN(c2nc(OCC3CCCN3C)nc3c(F)c(-c4nc(N)cc(C)c4C(F)(F)F)c(Cl)cc23)C(C)C1
IC50 (curve of first compound, second compound 0.00316 µM): 509 nM
IC50 (curve of first compound, second compound 0.01 µM): 618 nM
IC50 [1]: 648 nM
IC50 [2]: 570 nM
IC50 [3]: 740 nM
IC50 [4]: 694 nM
viability, T/C (second compound 0.00316 µM, first compound 0.00316 µM): 98.1%
viability, T/C (second compound 0.00316 µM, first compound 0.01 µM): 87.5%
viability, T/C (second compound 0.00316 µM, first compound 0.0316 µM): 77.2%
viability, T/C (second compound 0.00316 µM, first compound 0.1 µM): 72.3%
viability, T/C (second compound 0.00316 µM, first compound 0.316 µM): 63.5%
viability, T/C (second compound 0.00316 µM, first compound 1 µM): 36.4%
viability, T/C (second compound 0.01 µM, first compound 0.00316 µM): 78.5%
viability, T/C (second compound 0.01 µM, first compound 0.01 µM): 80.9%
viability, T/C (second compound 0.01 µM, first compound 0.0316 µM): 71.2%
viability, T/C (second compound 0.01 µM, first compound 0.1 µM): 75.8%
viability, T/C (second compound 0.01 µM, first compound 0.316 µM): 62.9%
viability, T/C (second compound 0.01 µM, first compound 1 µM): 40.3%
viability, T/C (second compound 0.0316 µM, first compound 0.00316 µM): 94.6%
viability, T/C (second compound 0.0316 µM, first compound 0.01 µM): 75.3%
viability, T/C [5]: 76.3%
viability, T/C [6]: 70.3%
viability, T/C [7]: 66.5%
viability, T/C [8]: 40.8%
viability, T/C (second compound 0.1 µM, first compound 0.00316 µM): 95.9%
viability, T/C (second compound 0.1 µM, first compound 0.01 µM): 70.3%
viability, T/C [9]: 85.1%
viability, T/C [10]: 72.2%
viability, T/C [11]: 63.5%
viability, T/C [12]: 38.2%
viability, T/C (second compound 0.316 µM, first compound 0.00316 µM): 84%
viability, T/C (second compound 0.316 µM, first compound 0.01 µM): 82.6%
viability, T/C [13]: 78.6%
viability, T/C [14]: 76.2%
viability, T/C [15]: 68%
viability, T/C [16]: 43.6%
viability, T/C (second compound 1 µM, first compound 0.00316 µM): 70.2%
viability, T/C (second compound 1 µM, first compound 0.01 µM): 71.1%
viability, T/C [17]: 71.3%
viability, T/C [18]: 77.2%
viability, T/C [19]: 63.5%
viability, T/C [20]: 42.7%

C[C@@H](NC(=O)c1ncnc(N)c1Cl)c1ncc(C(=O)Nc2cc(C(F)(F)F)c(Cl)cn2)s1 + C#Cc1c(F)ccc2cc(O)cc(-c3ncc4c(N5CC6CCC(C5)N6)nc(OCC56CCCN5CC(F)C6)nc4c3F)c12
IC50 [1]: > 10000 nM
IC50 [2]: > 10000 nM
IC50 [3]: > 10000 nM
IC50 [4]: > 10000 nM
IC50 [21]: > 10000 nM
IC50 [22]: > 10000 nM
viability, T/C [5]: 109%
viability, T/C [6]: 118%
viability, T/C [7]: 130%
viability, T/C [8]: 119%
viability, T/C [23]: 117%
viability, T/C [24]: 86.8%
viability, T/C [9]: 111%
viability, T/C [10]: 114%
viability, T/C [11]: 103%
viability, T/C [12]: 106%
viability, T/C [25]: 109%
viability, T/C [26]: 95.7%
viability, T/C [13]: 105%
viability, T/C [14]: 126%
viability, T/C [15]: 124%
viability, T/C [16]: 111%
viability, T/C [27]: 112%
viability, T/C [28]: 75.7%
viability, T/C [17]: 105%
viability, T/C [18]: 123%
viability, T/C [19]: 134%
viability, T/C [20]: 130%
viability, T/C [29]: 130%
viability, T/C [30]: 87.6%
viability, T/C [31]: 119%
viability, T/C [32]: 110%
viability, T/C [33]: 118%
viability, T/C [34]: 122%
viability, T/C [35]: 123%
viability, T/C [36]: 86%
viability, T/C [37]: 107%
viability, T/C [38]: 108%
viability, T/C [39]: 134%
viability, T/C [40]: 125%
viability, T/C [41]: 124%
viability, T/C [42]: 91.3%

CCC(CC)c1cc(NC2CCC(N)C2)n2nccc2n1 (centres undefined) + C#Cc1c(F)ccc2cc(O)cc(-c3ncc4c(N5CC6CCC(C5)N6)nc(OCC56CCCN5CC(F)C6)nc4c3F)c12
IC50 [1]: 1800 nM
IC50 [2]: 1870 nM
IC50 [3]: 1880 nM
IC50 [4]: 1880 nM
IC50 [21]: 1900 nM
IC50 [22]: 1810 nM
viability, T/C [5]: 99.4%
viability, T/C [6]: 87.7%
viability, T/C [7]: 97.2%
viability, T/C [8]: 111%
viability, T/C [23]: 2.83%
viability, T/C [24]: 2.78%
viability, T/C [9]: 91.1%
viability, T/C [10]: 97.8%
viability, T/C [11]: 106%
viability, T/C [12]: 133%
viability, T/C [25]: 2.38%
viability, T/C [26]: 2.61%
viability, T/C [13]: 93%
viability, T/C [14]: 95.1%
viability, T/C [15]: 106%
viability, T/C [16]: 137%
viability, T/C [27]: 2.97%
viability, T/C [28]: 2.55%
viability, T/C [17]: 90.4%
viability, T/C [18]: 93.1%
viability, T/C [19]: 116%
viability, T/C [20]: 127%
viability, T/C [29]: 2.97%
viability, T/C [30]: 2.86%
viability, T/C [31]: 100%
viability, T/C [32]: 94.9%
viability, T/C [33]: 116%
viability, T/C [34]: 126%
viability, T/C [35]: 2.6%
viability, T/C [36]: 2.57%
viability, T/C [37]: 86.1%
viability, T/C [38]: 88.7%
viability, T/C [39]: 111%
viability, T/C [40]: 122%
viability, T/C [41]: 0.62%
viability, T/C [42]: 0.86%

C[C@@H](NC(=O)c1ncnc(N)c1Cl)c1ncc(C(=O)Nc2cc(C(F)(F)F)c(Cl)cn2)s1
viability, T/C (compound 0.0316 µM): 106% [middle of 4 runs]
viability, T/C (compound 10 µM): 99.5% [middle of 4 runs]
IC50 (curve of compound): > 10000 nM
